These results are taken from patent US8889709B2, “Use of isoQC inhibitors in the treatment and prevention of inflammatory diseases or conditions” (Probiodrug AG, priority 2006, dated 2014).

Read-outs that look alike come from different tables or passages of the source. Peptide text beside a SMILES is read from it.

Assay [1] relates to Thioglycollate-induced peritonitis in C57/Bl6J mice. The experiment in a line: Thioglycollate-induced peritonitis in C57/Bl6J wild type mice. The assay is classed as in vivo, mouse. As for the experimental part: C57/Bl6J mice were purchased from Charles River Laboratories (Kisslegg, Germany). For each experiment, the mice were age- and sex-matched. An intraperitoneal injection of 25 ml/kg body weight of sterile 8% (w/v) thioglycollate (Sigma-Aldrich) was used to induce peritonitis. 30 min before the thioglycollate-stimulus, animals were injected with different doses of isoQC-inhibitor isoQC-I. For lavage of the peritoneum, the animals were anesthetized using 2% isofluran. The peritoneal exudates were collected by washing the peritoneum with 8 ml of sterile PBS 4 h after thioglycollate injection. Cells of 1 ml lavage fluid were collected by centrifugation (300 g, 10 min) and stained according to the manufacturer's instructions for BD Trucount tubes (BD Trucount tubes; catalog no. 340334; BD Biosciences, Heidelberg, Germany). Cells were blocked with CD16/32 (Caltag) at 4° C. for 15 min. and stained with 7/4-FITC (Serotec, Dusseldorf, Germany)/Ly6G-PE (Miltenyi, Bergisch Gladbach, Germany) as well as IgG1-PE (BD)/IgG2a-FITC (Miltenyi) as isotype controls at room temperature for 15 min. After staining, erythrocytes were lysed with BD FACSLyse (BD) in the dark at room temperature for 15 min. After washing with PBS, flow cytometric analysis was performed on a BD FACSCalibur (BD) based on 5000 beads per sample as reference standard.

The target of assay [2] is T1, human isoQC (Homo sapiens, UniProt Q9NXS2). As to the kind of experiment: Inactivation of human isoQC by heterocyclic chelators. The assay is classed as biochemical.
Target sequence in this assay (Q9NXS2 whole entry): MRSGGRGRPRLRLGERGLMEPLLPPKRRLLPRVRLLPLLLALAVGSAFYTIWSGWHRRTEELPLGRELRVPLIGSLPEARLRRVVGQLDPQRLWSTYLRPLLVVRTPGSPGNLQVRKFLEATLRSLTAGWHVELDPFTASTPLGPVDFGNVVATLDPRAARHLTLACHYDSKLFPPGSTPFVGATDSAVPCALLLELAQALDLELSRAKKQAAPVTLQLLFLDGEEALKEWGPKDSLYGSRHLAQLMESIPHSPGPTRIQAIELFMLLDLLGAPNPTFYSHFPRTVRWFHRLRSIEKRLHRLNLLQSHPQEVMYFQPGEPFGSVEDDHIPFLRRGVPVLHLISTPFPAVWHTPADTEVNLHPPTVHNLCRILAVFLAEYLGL
Assay [3] concerns the target T2, mouse-isoQC (Mus musculus, UniProt Q8BH73, I74N). The experiment in a line: Inactivation/reactivation of mouse-isoQC by chelators and metal ions. The conditions noted are these: for reactivation of mouse-isoQC apoenzyme: metal added after removal of the chelator.
The target of assay [4] is T3, human isoQC (Homo sapiens, UniProt Q9NXS2, C369A/I73N). As to the kind of experiment: Inhibitor assay, human isoQC (Ki/IC50, competitive inhibition).
In assay [5] the target is T1, human isoQC. The description is as above.
Target sequence in this assay (Q9NXS2 48-382): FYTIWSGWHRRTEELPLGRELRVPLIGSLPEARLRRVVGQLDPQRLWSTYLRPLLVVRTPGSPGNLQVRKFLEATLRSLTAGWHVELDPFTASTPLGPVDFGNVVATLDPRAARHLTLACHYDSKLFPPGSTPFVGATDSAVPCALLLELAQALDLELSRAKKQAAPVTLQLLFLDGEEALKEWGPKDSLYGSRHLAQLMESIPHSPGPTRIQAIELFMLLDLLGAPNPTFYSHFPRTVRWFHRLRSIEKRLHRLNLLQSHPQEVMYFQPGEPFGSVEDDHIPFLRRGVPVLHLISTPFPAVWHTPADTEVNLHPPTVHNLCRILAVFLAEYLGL
A further assay has as its target human QC (Homo sapiens, UniProt Q16769). As to the kind of experiment: Inhibitor assay, human QC (Ki/IC50, competitive inhibition).
Assay [6] has as its target T2, mouse-isoQC. As to the kind of experiment: Kinetic parameters of conversion of peptide substrates by murine isoQC. The assay is classed as biochemical. The arrangement: starting with codon 43 (Glu 43) of the open reading frame (counting from methionine II); yeast alpha-factor secretion signal (N); made in house; host or cells: Pichia pastoris X-33. As for the experimental part: (§1) Excitation/emission wavelengths were 320/410 nm.
(§2) Excitation/emission wavelengths were 380/460 nm.
(§3) Kinetic data were evaluated using GraFit software.

The target of assay [7] is T3, human isoQC. The experiment in a line: Kinetic evaluation of peptide substrates of human isoQC. The class given is biochemical. Details: The cDNA of the mature human isoQC starting with codon 30 (counting from methionine II); His6 (C-His) (C); yeast alpha-factor secretion signal (YSS) (N); made in house; host or cells: Pichia pastoris X-33. The conditions noted are these: human isoQC expressed in P. pastoris (YSShisoQC). As for the experimental part:
as §1, §2, §3

The target of assay [8] is T1, human isoQC. Described as above. The class given is biochemical. The arrangement: The cDNA of the mature human isoQC starting with codon 30 (counting from methionine II); His6 (C-His) (C); yeast alpha-factor secretion signal (YSS) (N); made in house; host or cells: Pichia pastoris X-33. The conditions noted are these: human isoQC expressed in E. coli BL21 (hisoQCdt). The procedure: as §1, §2, §3
Target sequence in this assay (Q9NXS2 48-382): as above

In general, Ki refers to a measure of affinity in units of concentration, obtained from inhibition or displacement. As a reminder, the IC50 is the concentration that gives 50% inhibition. Lower therefore signals greater potency in that assay. A word on the Km: it is the concentration of substrate that gives half-maximal velocity.

T2 sequence (Q8BH73 61-383 I74N): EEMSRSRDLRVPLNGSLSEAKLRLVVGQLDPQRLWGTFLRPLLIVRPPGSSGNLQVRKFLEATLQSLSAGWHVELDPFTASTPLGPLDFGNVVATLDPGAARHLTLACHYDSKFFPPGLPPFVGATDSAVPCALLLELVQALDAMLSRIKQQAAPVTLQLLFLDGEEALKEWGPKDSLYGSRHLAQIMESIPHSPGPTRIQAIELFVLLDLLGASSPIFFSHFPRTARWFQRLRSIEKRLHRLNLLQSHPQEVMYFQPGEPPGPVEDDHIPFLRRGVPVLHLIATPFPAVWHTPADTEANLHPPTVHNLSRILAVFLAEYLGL
T3 sequence (Q9NXS2 48-382 I73N/C369A): as the sequence (Q9NXS2 48-382) above, with I26N, C322A counted along it
human QC, sequence (Q16769 29-361): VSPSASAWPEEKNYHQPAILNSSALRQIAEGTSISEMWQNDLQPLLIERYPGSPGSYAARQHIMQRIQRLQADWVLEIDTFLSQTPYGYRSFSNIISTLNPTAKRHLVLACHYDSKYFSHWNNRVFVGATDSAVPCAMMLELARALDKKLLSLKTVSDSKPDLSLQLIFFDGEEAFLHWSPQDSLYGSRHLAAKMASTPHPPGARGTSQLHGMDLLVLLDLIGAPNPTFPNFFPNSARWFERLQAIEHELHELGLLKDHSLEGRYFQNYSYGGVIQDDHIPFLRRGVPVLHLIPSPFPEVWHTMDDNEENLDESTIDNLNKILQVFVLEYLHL

Turning to `CCCOc1ccc(C2C(=O)NC(=O)N2c2ccc3[nH]cnc3c2)cc1` (racemic) [Example 6, 1-(1H-benzo[d]imidazol-5-yl)-5-(4-propoxyphenyl)imidazolidine-2,4-dione], the “infiltrating monocytes in the peritoneum (FACS)” value in assay [1] (6 mg/kg ip) is reported as “reduction”; in assay [1] (18 mg/kg ip), “reduced the infiltration of monocytes down to baseline values”; in [1] (different doses ip 30 min before thioglycollate, lavage 4 h after) it was “dose-dependent reduction”. In addition, the “pGlu-MCP-1 in lavage fluid” value in assay [1] (FIG. 25b, different doses) is listed as “reduction of pGlu-content”.

Take `c1cnc2c(c1)ccc1cccnc12` [1,10-phenantroline]: the “inactivation of human isoQC” value at human isoQC [2] was “inactivated”. Moreover, at mouse-isoQC [3] (dialysis against buffer containing 5 mM 1,10-phenantrolin and 5 mM EDTA), the “inactivation of mouse-isoQC” value is listed as “inactivation”.

In the case of `Cn1ccnc1` [1-Methylimidazole], the Ki is 82 ± 3 µM at human isoQC [4], 80 ± 5 µM at human isoQC [5] and 39.7 ± 0.2 µM on human QC.

In the case of `c1ccc2[nH]cnc2c1` [Benzimidazole], the Ki at human isoQC [4] was found to be 250 ± 5 µM; on human isoQC [5] it was 200 ± 8 µM; on human QC (read-out: Ki (μM) hQC, competitive inhibition) it was 138 ± 4 µM.

`O=C(O)CN(CCN(CC(=O)O)CC(=O)O)CC(=O)O` [EDTA]: on human isoQC [2], the “inactivation of human isoQC” value is on record as “inactivated”.

Turning to `O=C1NC(=O)N(c2ccc3[nH]cnc3c2)C1c1ccc2nsnc2c1` (centres unmarked) [Example 1, 5-(benzo[c][1,2,5]thiadiazol-6-yl)-1-(1H-benzo[d]imidazol-5-yl)imidazolidine-2,4-dione], on human isoQC [4], the IC50 worked out at 0.0033 µM and the Ki came out at 0.00162 µM.

Take `O=C1NC(=O)N(c2ccc3[nH]cnc3c2)C1c1ccccc1` (centres unmarked) [Example 2, 1-(1H-benzo[d]imidazol-5-yl)-5-phenylimidazolidine-2,4-dione]: at human isoQC [4], the IC50 worked out at 0.0296 µM and affinity was put at a Ki of 0.0164 µM.

Take `O=C1NC(=O)N(c2ccc3[nH]cnc3c2)C1c1cc(C(F)(F)F)ccc1F` (centres unmarked) [Example 4, 1-(1H-benzo[d]imidazol-5-yl)-5-(2-fluoro-5-(trifluoromethyl)phenyl)imidazolidine-2,4-dione]: on human isoQC [4], the concentration for half-maximal inhibition (IC50) is 0.15 µM and the affinity corresponds to a Ki of 0.0258 µM.

As to `O=C1NC(=O)N(c2ccc3[nH]cnc3c2)C1c1cc(F)ccc1Br` (centres unmarked) [Example 5, 1-(1H-benzo[d]imidazol-5-yl)-5-(2-bromo-5-fluorophenyl)imidazolidine-2,4-dione], on human isoQC [4], the IC50 came to 0.066 µM and affinity was put at a Ki of 0.00827 µM.

Turning to `O=C1NC(=O)N(c2ccc3[nH]cnc3c2)C1c1ccc(Cl)c(C(F)(F)F)c1` (centres unmarked) [Example 7, 1-(1H-benzo[d]imidazol-5-yl)-5-(4-chloro-3-(trifluoromethyl)phenyl)imidazolidine-2,4-dione], at human isoQC [4], the concentration for half-maximal inhibition (IC50) amounted to 1.4 µM and the affinity, expressed as Ki, was 0.0352 µM.

In the case of `COc1ccc(C2C(=O)NC(=O)N2c2ccc3[nH]cnc3c2)cc1O` (centres unmarked) [Example 9, 1-(1H-benzo[d]imidazol-5-yl)-5-(3-hydroxy-4-methoxyphenyl)imidazolidine-2,4-dione], at human isoQC [4], the half-inhibitory concentration (IC50) stood at 0.0303 µM and the Ki came out at 0.00266 µM.

On human isoQC [4], `O=C1NC(=O)N(c2ccc3[nH]cnc3c2)C1c1cccc(Cl)c1` (centres unmarked) [Example 12, 1-(1H-benzo[d]imidazol-5-yl)-5-(3-chlorophenyl)imidazolidine-2,4-dione] displayed an IC50 of 0.058 µM and an inhibitory constant (Ki) of 0.0105 µM.

In the case of `O=C1NC(=O)N(c2ccc3[nH]cnc3c2)C1c1ccc(Cl)cc1` (centres unmarked) [Example 13, 1-(1H-benzo[d]imidazol-5-yl)-5-(4-chlorophenyl)imidazolidine-2,4-dione], on human isoQC [4], the IC50 came out at 0.052 µM and affinity was put at a Ki of 0.00671 µM.

With `O=C1NC(=O)N(c2ccc3[nH]cnc3c2)C1c1ccccc1Cl` (centres unmarked) [Example 14, 1-(1H-benzo[d]imidazol-5-yl)-5-(2-chlorophenyl)imidazolidine-2,4-dione], at human isoQC [4], the IC50 was 0.04 µM and affinity was put at a Ki of 0.00307 µM.

Turning to `O=C1NC(=O)N(c2ccc3[nH]cnc3c2)C1c1ccc(F)cc1` (centres unmarked) [Example 15, 1-(1H-benzo[d]imidazol-5-yl)-5-(4-fluorophenyl)imidazolidine-2,4-dione], on human isoQC [4], the IC50 came out at 0.06 µM and the Ki was found to be 0.0123 µM.

On human isoQC [4], `O=C1NC(=O)N(c2ccc3[nH]cnc3c2)C1c1ccc2c(c1)OCCO2` (centres unmarked) [Example 16, 1-(1H-benzo[d]imidazol-5-yl)-5-(2,3-dihydrobenzo[b][1,4]dioxin-7-yl)imidazolidine-2,4-dione] yielded an IC50 of 0.0576 µM and a Ki of 0.00414 µM.

At human isoQC [4], `O=C1NC(=O)C2(Cc3ccccc3C2)N1c1ccc2[nH]cnc2c1` [Example 32, 3-(1H-benzimidazol-5-yl)-1′,3′-dihydro-2H,5H-spiro[imidazolidine-4,2′-indene]-2,5-dione] showed an IC50 of 0.166 µM and an inhibition constant Ki of 0.0409 µM.

On human isoQC [4], `O=C1NC(=S)C(c2ccc(Cl)cc2)N1c1ccc2[nH]cnc2c1` (centres unmarked) [Example 40, 1-(1H-benzo[d]imidazol-5-yl)-5-(4-chlorophenyl)-4-thioxoimidazolidin-2-one] registered an IC50 of 0.0583 µM and a Ki of 0.0114 µM.

Turning to `O=C1NC(=S)C(c2ccc(F)c(F)c2F)N1c1ccc2nc[nH]c2c1` (centres unmarked) [Example 41, 1-(1H-benzo[d]imidazol-5-yl)-5-(2,3,4-trifluorophenyl)-4-thioxoimidazolidin-2-one], at human isoQC [4], the half-inhibitory concentration (IC50) was 0.163 µM and the Ki stood at 0.0345 µM.

Regarding `Cc1cc(=O)oc2cc(NC(=O)[C@@H](N)CCC(N)=O)ccc12` [Q-AMC, H-Gln-AMC], on mouse-isoQC [6], the Km came out at 0.022 ± 0.001 mM and the “kcat (s^−1) m-isoQC” value was 6.98 ± 0.35 s⁻¹. In addition, on human isoQC [7], the Km worked out at 0.03 ± 0.0064 mM and the “kcat (s^−1) YSShisQC” value worked out at 3.72 ± 0.44 s⁻¹. Besides, at human isoQC [8], the Km amounted to 0.01 ± 0.0009 mM and the “kcat (s^−1) hisoQCdt” value was 1.07 ± 0.03 s⁻¹.

As for `NC(=O)CC[C@H](N)C(=O)Nc1ccc2ccccc2c1` [Q-βNA, H-Gln-βNA], at mouse-isoQC [6], the Km was 0.032 ± 0.003 mM and the “kcat (s^−1) m-isoQC” value turned out to be 17.48 ± 0.97 s⁻¹. Further, on human isoQC [7], the Km came out at 0.035 ± 0.0005 mM and the “kcat (s^−1) YSShisQC” value was 8.16 ± 0.87 s⁻¹. Further, on human isoQC [8], the Michaelis-Menten constant (Km) is 0.03 ± 0.002 mM and the “kcat (s^−1) hisoQCdt” value was 3.37 ± 0.12 s⁻¹.

Turning to `CC(C)C[C@H](NC(=O)[C@H](CC(=O)O)NC(=O)[C@H](CCC(=O)O)NC(=O)[C@@H](N)CCC(N)=O)C(=O)O` [QEDL] (H-QEDL-OH), the results for the Km on human isoQC [7] and on human isoQC [8] were 0.16 ± 0.01 mM and 0.63 ± 0.052 mM, respectively.

On to `NC(=O)CC[C@H](N)C(=O)N[C@@H](CCC(=O)O)C(=O)O` [QE] (H-Gln-Glu-OH), for which the Km at human isoQC [7] worked out at 0.61 ± 0.064 mM; at human isoQC [8], 0.7 ± 0.13 mM.

As for `C[C@H](NC(=O)[C@H](Cc1ccccc1)NC(=O)[C@@H](N)CCC(N)=O)C(=O)O` [QFA] (H-Gln-Phe-Ala-OH), the Km at human isoQC [7] is 0.104 ± 0.025 mM; at human isoQC [8] it was 0.11 ± 0.016 mM.

Consider `NC(=O)CC[C@H](N)C(=O)NCC(=O)O` [QG] (H-Gln-Gly-OH), for which the Michaelis-Menten constant (Km) came to 0.16 ± 0.01 mM on mouse-isoQC [6], 0.36 ± 0.047 mM at human isoQC [7] and 0.42 ± 0.04 mM on human isoQC [8].

`NC(=O)CC[C@H](NC(=O)[C@@H](N)CCC(N)=O)C(=O)O` [QQ] (H-Gln-Gln-OH): the Michaelis constant (Km) on human isoQC [7] amounted to 0.11 ± 0.007 mM; at human isoQC [8], 0.11 ± 0.027 mM.

For `O=S(=O)([O-])[O-].[Zn+2]` [ZnSO4], the “reactivation of mouse-isoQC apoenzyme” value on mouse-isoQC [3] is on record as “complete reactivation”.

With `O=C(O)c1cccc(C(=O)O)n1` [dipicolinic acid], the “inactivation of human isoQC” value on human isoQC [2] is on record as “inactivated”.

As for calcium, at mouse-isoQC [3], the “reactivation of mouse-isoQC apoenzyme” value was “No reactivation”.

manganese: the “reactivation of mouse-isoQC apoenzyme” value on mouse-isoQC [3] was “No reactivation”.
